Reference: patent US20250304535A1, “KAT6 Inhibitors” (BeiGene Switzerland GmbH, priority 2024, published 2025)

How the values were obtained:
[1] = target: Recombinant human KAT6A protein (497-780) (Homo sapiens (Human), UniProt Q92794); assay: KAT6A biochemical TR-FRET assay; settings: histone H4 peptide 2000 nM, AcCoA 300 nM, enzyme 5 nM
Experimental: Enzymatic reactions of KAT6A and KAT6B were performed using Fluorescence Resonance Energy Transfer (TR-FRET) assay, which measures acetylation of a synthetic, biotinylated histone-H4 peptide by the KAT6A and KAT6B enzymes. Recombinant human KAT6A protein (497-780) were expressed in BL21 cell using an E. coli expression system. Recombinant human KAT6B protein (657-1069) was expressed in sf9 cell using a baculovirus expression system. […] Acetyl coenzyme A was purchased from Sigma-Aldrich (#A-2056).
Testing for the inhibition activities of various compounds disclosed herein was carried out at room temperature in assay buffer containing 100 mM Tris/HCl Ph7.8, 15 mM NaCl, 0.01% chicken egg white albumin, 1 mM DTT and 0.01% Tween-20. Compounds in DMSO were dispensed into wells of a black, 384-well plate (Corning 4514) using ECHO555 (Beckman). The final concentration ranges of the test compounds were 0.0625-1,000 nM, 0.625-10,000 nM, or 0.313-5,000 nM. Five μL of KAT6A or KAT6B enzyme solution were added to wells, and the plate was incubated for 1 hour at room temperature (rt). After incubation for 1 hour at rt, 5 μL H4 and AcCoA substrate solutions were added to the wells to initiate reaction, and the plate was incubated. After 2 hours reaction, 5 μL detection reagent were added to the wells, and the plate was incubated for 2 hours. After two hours incubation, detection reagent containing 5 nM Anti-histone H4 antibody (ABCAM #ab177790), 100 μM formic acid (sigma #06473-100ML), 0.1 test/μL streptavidin-XL665 (PerkinElmer #610SAXLG), 0.05 test/μL PAb anti-rabbit IgG-Eu (PerkinElmer μ61PARKLA) was added to the wells. TR-FRET was measured on a microplate reader (PHERAstar FSX, BMG labtech). […] In Table 6, I≤5 nM, 5 nM<II≤50 nM.

[2] = target: Recombinant human KAT6B protein (657-1069) (Homo sapiens (Human), UniProt Q8WYB5); assay: KAT6B biochemical TR-FRET assay; settings: histone H4 peptide 1000 nM, AcCoA 100 nM, enzyme 5 nM
Experimental: Enzymatic reactions of KAT6A and KAT6B were performed using Fluorescence Resonance Energy Transfer (TR-FRET) assay, which measures acetylation of a synthetic, biotinylated histone-H4 peptide by the KAT6A and KAT6B enzymes. Recombinant human KAT6A protein (497-780) were expressed in BL21 cell using an E. coli expression system. Recombinant human KAT6B protein (657-1069) was expressed in sf9 cell using a baculovirus expression system. Histone H4 peptide (SEQ ID NO: 1—[…]-GGK-Biotin), which was used as substrate, was synthesized by GL Biochem, Shanghai, China. Acetyl coenzyme A was purchased from Sigma-Aldrich (#A-2056).
Testing for the inhibition activities of various compounds disclosed herein was carried out at room temperature in assay buffer containing 100 mM Tris/HCl Ph7.8, 15 mM NaCl, 0.01% chicken egg white albumin, 1 mM DTT and 0.01% Tween-20. Compounds in DMSO were dispensed into wells of a black, 384-well plate (Corning 4514) using ECHO555 (Beckman). The final concentration ranges of the test compounds were 0.0625-1,000 nM, 0.625-10,000 nM, or 0.313-5,000 nM. Five μL of KAT6A or KAT6B enzyme solution were added to wells, and the plate was incubated for 1 hour at room temperature (rt). After incubation for 1 hour at rt, 5 μL H4 and AcCoA substrate solutions were added to the wells to initiate reaction, and the plate was incubated. After 2 hours reaction, 5 μL detection reagent were added to the wells, and the plate was incubated for 2 hours. After two hours incubation, detection reagent containing 5 nM Anti-histone H4 antibody (ABCAM #ab177790), 100 μM formic acid (sigma #06473-100ML), 0.1 test/μL streptavidin-XL665 (PerkinElmer #610SAXLG), 0.05 test/μL PAb anti-rabbit IgG-Eu (PerkinElmer μ61PARKLA) was added to the wells. TR-FRET was measured on a microplate reader (PHERAstar FSX, BMG labtech). The IC50s were calculated based on inhibition of enzyme activity in the presence of increasing concentrations of test compounds, and the results are shown in Table 6. In Table 6, I≤5 nM, 5 nM<II≤50 nM.

[3] = system: histone H3K23 acetylation in U-2 OS cells; assay: Histone H3 lysine 23 acetylation assay in U-2 OS cells (high content analysis); type: cell-based; settings: Homo sapiens, U2OS, 24 hrs exposure, H3K23ac level
Experimental: Assay B: Histone H3 lysine 23 Acetylation Assay
Compounds were tested for their capacity to suppress the histone H3K23 acetylation in the following high content analysis assay.
The cell line U-2 OS (ATCC HTB-96) was seeded at a density of 2000 cells per well in black 384 well cell culture/imaging microplates in 45 μl McCoy's 5A medium with […]. After overnight incubation in 37° C., 5% CO2 incubator, cells were then treated with a 9-point dilution series of compounds and a blank control group with medium containing 0.1% DMSO.
Following a 24 hrs exposure to the compounds, the cells were fixed with 4% immunohistochemical fixative for 20 mins at room temperature, washed with DPBS with 2% fetal bovine serum, and permed with Perm Buffer III for 30 min on ice, washed with DPBS with 2% fetal bovine serum. Then the cells were blocked with Odyssey blocking buffer containing 0.1% Tween 20. 20 ul Anti-Histone H3 (acetyl K23) antibody (Abcam, ab177275) in odyssey blocking buffer containing 0.1% Tween20 was added and incubated overnight at 4° C. After incubation, the cells were washed for 3 times and a secondary antibody Anti-rabbit IgG (H+L), F(ab′)2 Fragment (Alexa Fluor® 647 Conjugate) (CST, 4414S) were added into cells for one hour. The cells were washed and 1 ug/ml DAPI (Thermo, 62248) were added for 10 min. Then cells were washed and read on the PerkinElmer Operetta CLS high content analysis system. The nuclei were identified by DAPI and H3K23ac level was calculated from the Alexa Fluor 647 intensity in the nuclei. Inhibition rate of H3K23ac was calculated as the mean intensity of cells per well relative to blank controls on the same plate.

Chain of Recombinant human KAT6B protein (657-1069) (Q8WYB5 657-1069): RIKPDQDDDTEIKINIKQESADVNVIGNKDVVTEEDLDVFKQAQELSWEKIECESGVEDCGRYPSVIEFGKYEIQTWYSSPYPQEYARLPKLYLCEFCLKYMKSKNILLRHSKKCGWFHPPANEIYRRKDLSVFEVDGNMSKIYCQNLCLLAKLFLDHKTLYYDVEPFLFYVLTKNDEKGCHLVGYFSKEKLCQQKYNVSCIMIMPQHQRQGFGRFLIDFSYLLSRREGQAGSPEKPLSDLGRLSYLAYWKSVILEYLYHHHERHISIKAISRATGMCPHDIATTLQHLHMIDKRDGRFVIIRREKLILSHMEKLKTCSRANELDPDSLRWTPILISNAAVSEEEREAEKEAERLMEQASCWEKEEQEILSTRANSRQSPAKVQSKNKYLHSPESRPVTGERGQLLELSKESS
Chain of Recombinant human KAT6A protein (497-780) (Q92794 497-780): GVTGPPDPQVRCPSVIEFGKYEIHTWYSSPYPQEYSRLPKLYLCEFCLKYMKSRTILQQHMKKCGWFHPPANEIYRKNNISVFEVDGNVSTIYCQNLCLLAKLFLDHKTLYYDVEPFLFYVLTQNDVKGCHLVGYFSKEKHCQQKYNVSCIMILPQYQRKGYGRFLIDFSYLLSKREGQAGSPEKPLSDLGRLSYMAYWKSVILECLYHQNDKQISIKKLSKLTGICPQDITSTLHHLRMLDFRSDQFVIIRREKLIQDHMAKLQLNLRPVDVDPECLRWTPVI

| SMILES | IC50 [1] | IC50 [2] | IC50 [3] |
| --- | --- | --- | --- |
| COc1ccc(C(C)(C)C)cc1S(=O)(=O)NC(=O)c1ccc(Cn2cccn2)c(I)c1 [Example C1, 4-((1H-pyrazol-1-yl)methyl)-N-((5-(tert-butyl)-2-methoxyphenyl)sulfonyl)-3-iodobenzamide] | ≤ 5 nM | ≤ 5 nM | ≤ 10 nM |
| COc1ccc(C(C)(C)C)cc1S(=O)(=O)NC(=O)c1ccc(Cn2cccn2)c(C2CC2)c1 [Example C2, 4-((1H-pyrazol-1-yl)methyl)-N-((5-(tert-butyl)-2-methoxyphenyl)sulfonyl)-3-cyclopropylbenzamide] | ≤ 5 nM | ≤ 5 nM | ≤ 10 nM |
| COc1ccc(C(C)(C)C)cc1S(=O)(=O)NC(=O)c1ccc(Cn2cccn2)c(C)c1 [Example C3, 4-((1H-pyrazol-1-yl)methyl)-N-((5-(tert-butyl)-2-methoxyphenyl)sulfonyl)-3-methylbenzamide] | ≤ 5 nM | ≤ 5 nM | ≤ 10 nM |
| C=Cc1cc(C(=O)NS(=O)(=O)c2cc(C(C)(C)C)ccc2OC)ccc1Cn1cccn1 [Example C4, 4-((1H-pyrazol-1-yl)methyl)-N-((5-(tert-butyl)-2-methoxyphenyl)sulfonyl)-3-vinylbenzamide] | ≤ 5 nM | ≤ 5 nM | ≤ 10 nM |
| COc1ccc(C(C)(C)C)cc1S(=O)(=O)NC(=O)c1ccc(Cn2cccn2)c(-c2ccco2)c1 [Example C5, 4-((1H-pyrazol-1-yl)methyl)-N-((5-(tert-butyl)-2-methoxyphenyl)sulfonyl)-3-(furan-2-yl)benzamide] | ≤ 5 nM | ≤ 5 nM | ≤ 10 nM |
| CCc1cc(C(=O)NS(=O)(=O)c2cc(C(C)(C)C)ccc2OC)ccc1Cn1cccn1 [Example C6, 4-((1H-pyrazol-1-yl)methyl)-N-((5-(tert-butyl)-2-methoxyphenyl)sulfonyl)-3-ethylbenzamide] | ≤ 5 nM | ≤ 5 nM | ≤ 10 nM |
| COc1cc(C(=O)NS(=O)(=O)c2cc(C(C)(C)C)ccc2OC)ccc1Cn1cccn1 [Example C7, 4-((1H-pyrazol-1-yl)methyl)-N-((5-(tert-butyl)-2-methoxyphenyl)sulfonyl)-3-methoxybenzamide] | ≤ 5 nM | ≤ 5 nM | ≤ 10 nM |
| COc1ccc(C(C)(C)C)cc1S(=O)(=O)NC(=O)c1ccc(Cn2cccn2)c(C2CC2)n1 [Example C8, 5-((1H-pyrazol-1-yl)methyl)-N-((5-(tert-butyl)-2-methoxyphenyl)sulfonyl)-6-cyclopropyl-picolinamide] | ≤ 5 nM | ≤ 5 nM | ≤ 10 nM |
| C#Cc1cc(C(=O)NS(=O)(=O)c2cc3c(cc2OC)CCC3)ccc1Cn1cccn1 [Example C9, 4-((1H-pyrazol-1-yl)methyl)-3-ethynyl-N-((6-methoxy-2,3-dihydro-1H-inden-5-yl)sulfonyl)benzamide] | 5 to 50 nM | 5 to 50 nM | 10 to 100 nM |
| COc1ccc(C(C)(C)C)cc1S(=O)(=O)NC(=O)c1cc(Br)c(Cn2cccn2)cc1F [Example C10, 4-((1H-pyrazol-1-yl)methyl)-5-bromo-N-((5-(tert-butyl)-2-methoxyphenyl)sulfonyl)-2-fluorobenzamide] | ≤ 5 nM | ≤ 5 nM | ≤ 10 nM |
| COc1ccc(C(C)(C)C)cc1S(=O)(=O)NC(=O)c1ccc(Cn2cccn2)c(Br)c1F [Example C11, 4-((1H-pyrazol-1-yl)methyl)-3-bromo-N-((5-(tert-butyl)-2-methoxyphenyl)sulfonyl)-2-fluorobenzamide] | ≤ 5 nM | ≤ 5 nM | ≤ 10 nM |
| COc1cccc(OC)c1S(=O)(=O)NC(=O)c1ccc(Cn2cccn2)c(OC)n1 [Example C69, 5-((1H-pyrazol-1-yl)methyl)-N-((2,6-dimethoxyphenyl)sulfonyl)-6-methoxy-picolinamide] | – | ≤ 5 nM | ≤ 10 nM |
